We go through 1 compound from patent US20190030114A1, “ISOFORM-SPECIFIC CALPAIN INHIBITORS, METHODS OF IDENTIFICATION, AND USES THEREOF” (WESTERN UNIVERSITY OF HEALTH SCIENCES, priority 2014, published 2019).

In experiment [1] the test system is field CA1 in acute hippocampal slices from male UBEA mutant mice. The experiment is described as follows: field EPSP recording, LTP in hippocampal slices from UBEA mutant mice (Angelman Syndrome model). It counts as cell-based. As to conditions: 200 nM. Here is the method:
FIG. 4: Field recording of excitatory postsynaptic potentials (EPSPs) performed in stratum radiatum of field CA1 in acute hippocampal slices prepared from male UBEA mutant mice (a model of Angelman Syndrome) or their wild-type littermates in the presence or absence of 200 nM of the calpain-2 selective inhibitor, Formula I (mCalp-I in the drawing). Results are expressed as percent of the average values over a 10 min baseline period and are means±S.E.M. of the indicated number of experiments.
A calpain 2-specific inhibitor rescues LTP impairment in hippocampal slices from a mouse model of Angelman Syndrome. Field recording of excitatory postsynaptic potentials (EPSPs) was performed in stratum radiatum of field CA1 in acute hippocampal slices prepared from male UBEA mutant mice or their wild-type littermates.

Another experiment deals with retina (GCL, IPL). The experiment in a line: retinal damage induced by intravitreal NMDA injection, systemic (i.p.) inhibitor. It counts as in vivo, mice. The method, then: FIG. 8A: Representative images show H&E-stained ganglion cell and Plexiform layers of: i) naïve retina; ii) PBS-treated (intravitreally, 2 μI) or NMDA-treated (intravitreally, 2 μI of 2.5 mM) retina from wild-type mice that had been intraperitoneally injected with vehicle (20% DMSO), Formula I (C2l in the drawing, 0.3 mg/kg) or the pan-calpain inhibitor calpeptin (10 mg/kg) at 30 min before and 6 h after NMDA injection. H&E staining was done at 7 days after NMDA injection.
FIG. 8B: Quantitative analysis of cell number in the GCL of wild-type mice that had been injected intravitreally 7 days earlier with either 2 μI PBS or 2 μI NMDA (2.5 mM). The mice were intraperitoneally injected with vehicle (20% DMSO), a Formula I (C2l in the drawing, 0.3 mg/kg) or the pan-calpain inhibitor calpeptin (10 mg/kg) at 30 min before and 6 h after NMDA injection. Columns represent mean±S.E.M. n=4-6. *p<0.05; **p<0.01; ***p<0.001 versus NMDA plus vehicle-injected group. One-way ANOVA followed by Bonferroni test.
FIG. 8C: Quantitative analysis of thickness of the IPL of wild-type mice that had been injected intravitreally 7 days earlier with either 2 μI PBS or 2 μI NMDA (2.5 mM). The mice were intraperitoneally injected with vehicle (20% DMSO), Formula I (C2l in the drawing, 0.3 mg/kg) or the pan-calpain inhibitor calpeptin (10 mg/kg) at 30 min before and 6 h after NMDA injection.
FIG. 9A: Representative immunoblot of the levels of Spectrin breakdown products (SBDP), full-length PH domain and Leucine-rich repeat Protein Phosphatase 1 (PHLPP1)α and Akt in mouse retinal extracts 6 h after intravitreal injection of PBS (control) or NMDA (2 μI of 2.5 mM). Mice were injected i.p. with vehicle (10% DMSO) or C2l (0.3 mg/kg) 30 min before intravitreal injection.
FIG. 9B: Quantitation of ratios of SBDP/Akt, as determined in retinal extracts 6 h after NMDA or PBS injections. Data represent means±S.E.M. n=4. *p<0.05, ***p<0.001,. One-way ANOVA followed by Bonferroni test.
FIG. 9C: Quantitation of ratios of PHLPP1α/Akt, as determined in retinal extracts 6 h after NMDA or PBS injections. Data represent means±S.E.M. n=4. *p<0.05, ***p<0.001,. One-way ANOVA followed by Bonferroni test.
FIG. 9E: Quantitative analysis of cell number in the GCL from wild-type mice 7 days after NMDA-injection. Six sections cut through the optic disc from each eye were analyzed. Cell numbers in GCL at a distance between 500 and 1000 μm from the optic disc were counted. Cell densities from 6 sections from each eye were averaged.
FIG. 9F: Quantitative analysis of thickness of the IPL from wild-type mice 7 days after NMDA-injection. Six sections cut through the optic disc from each eye were analyzed. Cell numbers in GCL at a distance between 500 and 1000 μm from the optic disc were counted. Cell densities from 6 sections from each eye were averaged.
FIG. 9H: Quantitative analysis of cell number in the GCL from calpain-1 KO mice 7 days after NMDA-injection. Six sections cut through the optic disc from each eye were analyzed. Cell numbers in GCL at a distance between 500 and 1000 μm from the optic disc were counted. Cell densities from 6 sections from each eye were averaged. Data represent means±S.E.M. n=6. *p<0.05, **p<0.01, ***p<0.001, One-way ANOVA followed by Bonferroni test.
FIG. 9I: Quantitative analysis of thickness of the IPL of calpain-1 mice 7 days after NMDA-injection. Six sections cut through the optic disc from each eye were analyzed. Cell numbers in GCL at a distance between 500 and 1000 μm from the optic disc were counted. Cell densities from 6 sections from each eye were averaged. Data represent means±S.E.M. n=6. *p<0.05, **p<0.01, ***p<0.001, One-way ANOVA followed by Bonferroni test.
FIG. 9J: Comparison of GCL cell numbers in NMDA-treated WT and KO mice without and with C2l treatment. n=6. **p<0.01. Two-tailed t-test. […]

A further experiment concerns retina (GCL, IPL, RGC). The experiment is described as follows: acute IOP elevation (acute angle closure glaucoma model), systemic (i.p.) C2l. It counts as in vivo, mice.
Where [2] appears, read: WT mice, i.p. 30 min before and 6 h after NMDA.
[3] abbreviates: calpain-1 KO mice, systemic injection.
[4] abbreviates: i.p. 30 min before NMDA, 6 h after NMDA, WT mice.
Setting [5] is: injected 2 h after IOP elevation, WT mice, n=5.

For the compound `CCC(NC(=O)C(CC(C)C)NC(=O)OCc1ccccc1)C(=O)C(=O)NCc1cc(OC)cc(OC)c1` (racemic) [Formula 1, Z-Leu-Abu-CONH—CH2-C6H3 (3, 5-(OMe)2)], in experiment [1], the “LTP magnitude in slices from UBEA mutant mice” value is listed as “restored LTP magnitude to the level found in slices from wild-type mice” and the “initial increase in fEPSP elicited by TBS” value is reported as “no effect”. Moreover, the NMDA-induced retinal damage entry in the experiment with retina (GCL, IPL) (0.3 mg/kg i.p. 30 min before and 6 h after NMDA, wild-type mice) is listed as “protective against NMDA-induced retinal damage”. The “effect on GCL cell survival, KO versus WT mice” value with retina (GCL, IPL) (NMDA-treated) is “lower in KO mice than in WT mice”. In the experiment on retina (GCL, IPL) (setting [2]), the “NMDA-induced reduction in GCL cell density” value was “significantly suppressed the reduction” and the “NMDA-induced reduction in IPL thickness” value is reported as “significantly suppressed the reduction”. Besides, in the experiment on retina (GCL, IPL) (setting [3]), the “NMDA-induced decrease in GCL cell density” value was “partially but significantly reversed” and the “NMDA-induced decrease in IPL thickness” value is on record as “partially but significantly reversed”. Further, in the experiment with retina (GCL, IPL) (setting [4]), the “NMDA-induced changes in PHLPP1 in retinal extracts” value is “not” and the “NMDA-induced changes in SBDP in retinal extracts” value is on record as “significantly suppressed”. Further, the “survival rate of RGC versus vehicle” value with retina (GCL, IPL, RGC) (injected 2 h after IOP elevation) is “significantly improved”. Further, in the experiment with retina (GCL, IPL, RGC) (setting [5]), the “RGC counts (brn-3a), IOP-elevated eye” value was 37.1±2.5 cells/mm and the “RGC counts (brn-3a), sham eye” value amounted to 45.2±5.0 cells/mm. Moreover, the “changes in PHLPP1 and pAkt after IOP elevation” value in the experiment on retina (GCL, IPL, RGC) (retina 3 h after IOP elevation, 0.3 mg/kg at 2 h) is listed as “present in C2l-injected WT mice”.
